Details of data set [1]: species or system KM mice. The following applies: mouse, in vivo, iv. As to the method:
To evaluate the clearance rates of [^68Ga]Ga-DOTA-CCK2R-dimer and [^68Ga]Ga-DOTA-CCK-66 from the blood, a pharmacokinetic study was conducted in male KM mice (4-6 weeks old, 18-20 g, n = 5/group). Each mouse received 3.7 MBq of radiotracer via tail vein injection, corresponding to approximately 120 pmol of [^68Ga]Ga-DOTA-CCK2R-dimer or 210 pmol of [^68Ga]Ga-DOTA-CCK-66. Blood samples were collected from the tail vein into preweighed capillary tubes at 1, 3, 5, 10, 15, 30, 60, 90, 120, and 150 min post-injection. The radioactivity of the blood samples was measured using a γ-counter, and the percent of injected dose per gram of tissue (%ID/g) was calculated. Additionally, we assessed the in vivo stability of [^177Lu]Lu-DOTA-CCK2R-dimer. Mice were intravenously injected with 7.4 MBq (≈ 240 pmol) of [^177Lu]Lu-DOTA-CCK2R-dimer (dissolved in 200 μL of saline; n = 3/group). Urine samples were collected at 1, 4, and 24 hours post-injection, then diluted, filtered through a 0.22 μm membrane, and analyzed by radio-HPLC.
All animal studies were approved by the Ethics Committee of Fudan University […]
Shanghai Cancer Center (No. FUSCC-IACUC- S2023- 0003). […]
Pharmacokinetics in Normal Mice
F or the pharmacokinetics study, […] male KM mice (4 - 6 weeks old, weighing 18 - 20 g) were administered either [68Ga]Ga-D O TA -CCK2R-dimer or [68Ga]Ga-D O TA -CCK- 66 (3.7 MBq per mouse, n = 5/group) via tail vein injection.
Blood samples were collected from the tail vein using pre-weighed capillary tubes at […]
Radioactivity levels were measured using a gamma counter, with decay correction applied based on the injection time. The percentage of injected dose per gram of tissue (%ID/g) was calculated for each time point. […]

Data set [2] has as its system AR42J tumor-bearing mice. The experiment in a line: in vivo. The following applies: mouse, 1 h. More on the design: species or system BALB/c nude mice. As to the method: To complement the imaging studies, biodistribution experiments were performed. AR42J tumor-bearing mice were intravenously injected with 3.7 MBq of [^68Ga]Ga-DOTA-CCK2R-dimer (≈ 120 pmol) or [^68Ga]Ga-DOTA-CCK-66 (≈ 210 pmol) (dissolved in 200 μL of saline; n = 3/group). The mice were sacrificed at 30, 60, and 120 min post-injection, and the tissues of interest were excised, weighed, and analyzed for radioactivity using a γ-counter. For blocking studies, a 400-fold excess of the lead compound was co-administered, and the mice were sacrificed at 1 h post-injection.
All animal studies were approved by the Ethics Committee of Fudan University
Shanghai Cancer Center (No. FUSCC-IACUC- S2023- 0003). Five-week-old female
BALB/c nude mice were purchased from Shanghai SLAC Laboratory Animal
Company. To establish cell-derived xenograft (CDX) models, 1 × 10⁶ AR42J cells
(100 μL) were subcutaneously inoculated into the right shoulder of each mouse. […]

For data set [3], the system named is AR42J tumor-bearing mice. The experiment in a line: Toxicity studies (blood count, blood biochemistry, histopathology). As to the method:
On day 12 post-treatment, the tumor tissues were processed and subjected to scRNA-seq and immunohistochemical (IHC) analysis (see Supplementary Methods, Section S4). […] Toxicity studies were conducted when the mice reached one of the predefined endpoints (Supplementary Methods, Section S6). […]
Section S6: Toxicity Studies
Blood samples were collected retro-orbitally using a glass capillary tube when mice reached one of the predefined endpoints. The samples were then centrifuged at 6,000 rpm for 10 minutes (Centrifuge 5417R, Eppendorf SE, Enfield, CT, USA), and the supernatant was transferred into a preventive care profile plus rotor for analysis of RBC, WBC, PLT, ALT, AST, ALP, BUN, and CREA. Sample analysis was performed

For a further data set, the system named is GSTK1. The experiment in a line: Western blot of GSTK1 expression. The following applies: cultured AR42J cells, 24 h. It counts as cell-based, rat. As to the method: pathway analysis, and Reactome pathway analysis. GO enrichment analysis was conducted using clusterProfiler (v4.0.5). KEGG pathway enrichment was analyzed using clusterProfiler, focusing on pathways relevant to radiotherapy- related detoxification, including glutathione metabolism and cytochrome P450- mediated metabolism of xenobiotics. Reactome pathway analysis was performed using […]
to radiosensitivity regulation. […]
protease and phosphatase inhibitors. Total protein (20 μ g per sample) was separated […]
ABclonal, Cat. No. A5226). After three washes with TBST, membranes were […]
temperature. Protein bands were visualized using an enhanced chemiluminescence detection system (CLINX, ChemiScope 6200).
Section S6: Toxicity Studies […]
mice reached one of the predefined endpoints. The samples were then centrifuged at […]
RBC, WBC, PLT, ALT, AST, ALP, BUN, and CREA. Sample analysis was performed
In general terms: Immunoblotting shows a protein as a band on a membrane.

The subject of data set [4] is AR42J tumor-bearing mice. The experiment in a line: In vivo therapeutic study (tumor volume, survival, body weight). Further details: species or system BALB/c nude mice. An excerpt: When the tumor volume reached approximately 100 mm^3, the AR42J tumor-bearing mice were randomly divided into four treatment groups (n = 8/group).
Tumor volumes and body weights were monitored every two days. The following humane endpoints were established as follows: tumor volume exceeding 1500 mm^3, weight loss greater than 15%, or observable signs of pain or distress. Mice meeting one of these criteria were euthanized.

Setting [5] is: post-treatment blood biochemistry.

Numbered stars: 1 amine (or outer) side, 2 acyl side, 3 side chain; on linkers, the order of the positions; unused ones are H or OH. Square brackets hold non-standard residues; d marks the D form. Side chains are listed from the residue outwards. Peptide text beside a SMILES is read from it. * marks the point of attachment. DOTA = O=C(O)CN1CCN(CC(=O)O)CCN(CC(=O)*)CCN(CC(=O)O)CC1; d(γGlu) = O=C(O)[C@@H](CCC(=O)[*:2])N[*:1]; 1Nal = N[C@@H](Cc1cccc2ccccc12)C(=O)O; NMeNle = CCCC[C@H](NC)C(=O)O; PEG4 = NCCOCCOCCOCCOCCC(=O)O

Results on two compounds are retold here after PMC12439480, “Dimeric CCK2R radiotheranostic tracers synergize with mTOR inhibition for enhanced tumor therapy” (Theranostics, 2025).

With `CCCC[C@@H](C(=O)N[C@@H](CC(=O)O)C(=O)N[C@@H](Cc1cccc2ccccc12)C(N)=O)N(C)C(=O)[C@H](Cc1c[nH]c2ccccc12)NC(=O)CCOCCOCCOCCOCCNC(=O)CC[C@@H](NC(=O)CC[C@H](NC(=O)CN1CCN(CC(=O)O)CCN(CC(=O)O)CCN(CC(=O)O)CC1)C(=O)N[C@H](CCC(=O)NCCOCCOCCOCCOCCC(=O)N[C@@H](Cc1c[nH]c2ccccc12)C(=O)N(C)[C@@H](CCCC)C(=O)N[C@@H](CC(=O)O)C(=O)N[C@@H](Cc1cccc2ccccc12)C(N)=O)C(=O)O)C(=O)O` [[68Ga]Ga-DOTA-CCK2R-dimer] [metal not drawn] ({DOTA}-E([d(γGlu)-PEG4-Trp-NMeNle-Asp-1Nal-NH2])[d(γGlu)][PEG4]W[NMeNle]D[1Nal]-NH2), in data set [1], the t1/2α was 37.8 s. In the data set on AR42J tumor-bearing mice [2], this compound gave a Bladder uptake of 0.99 ± 0.77 %ID/g, a Heart uptake of 0.2 ± 0.15 %ID/g, a Kidney uptake of 12.32 ± 8.97 %ID/g and a Liver uptake of 3.88 ± 2.47 %ID/g.
Regarding `CO[C@H]1C[C@@H]2CC[C@@H](C)[C@@](O)(O2)C(=O)C(=O)N2CCCC[C@H]2C(=O)O[C@H]([C@H](C)C[C@@H]2CC[C@@H](OCCO)[C@H](OC)C2)CC(=O)[C@H](C)/C=C(\C)[C@@H](O)[C@@H](OC)C(=O)[C@H](C)C[C@H](C)/C=C/C=C/C=C/1C` [RAD001, everolimus, reference compound], in the data set on AR42J tumor-bearing mice [3] (post-treatment CBC), the GRA was 23.97 ± 4.05%, the “GRA#” value is listed as 0.19 ± 0.05 109/L, the HCT is recorded as 25.73 ± 1.05% and the HGB amounted to 178.57 ± 3.40 g/L. In the data set with AR42J tumor-bearing mice [3] (post-treatment CBC), the LYM was 53.9 ± 5.47%, the “LYM#” value is 0.41 ± 0.03 109/L, the MCH was 35.33 ± 0.87 pg and the MCHC came to 693.67 ± 15.95 g/L. Further, in the data set with AR42J tumor-bearing mice [3] (post-treatment CBC), the MCV was 51.03 ± 0.57 fL, the MON stood at 22.13 ± 2.32%, the “MON#” value is recorded as 0.17 ± 0.05 109/L and the MPV was 13.8 ± 0.35 fL. For the same compound, in the data set with AR42J tumor-bearing mice [3] (post-treatment CBC), the P-LCR amounted to 45.87 ± 1.03%, the PCT came out at 0.12 ± 0.01%, the PDW is listed as 32.9 ± 0.3 fL and the PLT is on record as 104.33 ± 2.52 109/L. Besides, in the data set with AR42J tumor-bearing mice [3] (post-treatment CBC), the RBC is recorded as 5.05 ± 0.22 1012/L, the RDWCV was 11.23 ± 0.15%, the RDWSD is reported as 23.33 ± 1.10 fL and the WBC was 7.67 ± 1.15 109/L. In the data set with AR42J tumor-bearing mice [3] (setting [5]), this compound yielded an ALP of 150.68 ± 32.99 U/L, an ALT of 43.73 ± 11.08 U/L, an AST of 109.76 ± 13.94 U/L and a UA of 140.92 ± 41.88 µmol/L. The compound further had a UREA in the data set with AR42J tumor-bearing mice [3] (setting [5]) of 3.49 ± 1.30 mmol/L. Besides, the “GSTK1 expression (Western blot)” value with GSTK1 is “lower in the mTOR group than in the Veh group”. In addition, the median survival time with AR42J tumor-bearing mice [4] (Kaplan-Meier) was 32 days. In addition, the average tumor volume in the data set with AR42J tumor-bearing mice [4] (day 10) turned out to be 197.63 ± 40.92 mm³.
